Assay results: ChEMBL document CHEMBL5291721, “A preclinical secondary pharmacology resource illuminates target-adverse drug reaction associations of marketed drugs” (Nat Commun, 2023)

What was measured:
[1] = target: T1, 5-hydroxytryptamine receptor 2A (Homo sapiens, UniProt P28223); type: functional, cell-based
Histamine H1 receptor = Histamine H1 receptor (Homo sapiens, UniProt P35367)
[2] = target: T1, 5-hydroxytryptamine receptor 2A; type: functional, cell-based; remark: listed apart in the source
[3] = target: T2, Muscarinic acetylcholine receptor M1 (Homo sapiens, UniProt P11229); type: functional
T2 sequence (P11229 whole entry): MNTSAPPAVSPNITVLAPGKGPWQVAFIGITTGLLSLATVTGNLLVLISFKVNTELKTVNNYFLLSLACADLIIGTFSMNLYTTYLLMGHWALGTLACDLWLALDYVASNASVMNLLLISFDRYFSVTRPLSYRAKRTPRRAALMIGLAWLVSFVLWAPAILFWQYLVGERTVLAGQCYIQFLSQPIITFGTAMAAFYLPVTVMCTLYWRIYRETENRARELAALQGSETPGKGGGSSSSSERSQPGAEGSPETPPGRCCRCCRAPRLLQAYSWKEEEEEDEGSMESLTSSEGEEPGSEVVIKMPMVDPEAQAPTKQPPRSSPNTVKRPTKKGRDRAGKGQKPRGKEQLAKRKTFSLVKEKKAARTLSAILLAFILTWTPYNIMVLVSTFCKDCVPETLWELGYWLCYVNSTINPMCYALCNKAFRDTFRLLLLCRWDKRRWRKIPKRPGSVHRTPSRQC

[4] = target: Muscarinic acetylcholine receptor M3 (Homo sapiens, UniProt P20309)
Muscarinic acetylcholine receptor M3, sequence (P20309 whole entry): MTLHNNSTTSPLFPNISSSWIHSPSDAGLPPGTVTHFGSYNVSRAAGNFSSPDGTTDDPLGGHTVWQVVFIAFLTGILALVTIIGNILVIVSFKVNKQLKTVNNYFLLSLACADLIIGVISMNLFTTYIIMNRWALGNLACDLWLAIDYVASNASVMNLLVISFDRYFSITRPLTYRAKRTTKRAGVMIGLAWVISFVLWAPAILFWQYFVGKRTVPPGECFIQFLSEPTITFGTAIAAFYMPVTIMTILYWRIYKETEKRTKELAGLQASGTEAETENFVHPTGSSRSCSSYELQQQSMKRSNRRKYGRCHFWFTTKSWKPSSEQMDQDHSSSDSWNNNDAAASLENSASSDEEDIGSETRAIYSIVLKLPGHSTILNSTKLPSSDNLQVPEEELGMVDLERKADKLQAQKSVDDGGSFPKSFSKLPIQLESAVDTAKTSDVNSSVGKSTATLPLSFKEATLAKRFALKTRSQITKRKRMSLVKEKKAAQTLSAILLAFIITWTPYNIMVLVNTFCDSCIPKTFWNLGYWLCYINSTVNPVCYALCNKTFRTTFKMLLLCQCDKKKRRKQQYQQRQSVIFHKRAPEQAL

Endothelin-1 receptor = target: T3, Endothelin-1 receptor (Homo sapiens, UniProt P25101)
T3 sequence (P25101 whole entry): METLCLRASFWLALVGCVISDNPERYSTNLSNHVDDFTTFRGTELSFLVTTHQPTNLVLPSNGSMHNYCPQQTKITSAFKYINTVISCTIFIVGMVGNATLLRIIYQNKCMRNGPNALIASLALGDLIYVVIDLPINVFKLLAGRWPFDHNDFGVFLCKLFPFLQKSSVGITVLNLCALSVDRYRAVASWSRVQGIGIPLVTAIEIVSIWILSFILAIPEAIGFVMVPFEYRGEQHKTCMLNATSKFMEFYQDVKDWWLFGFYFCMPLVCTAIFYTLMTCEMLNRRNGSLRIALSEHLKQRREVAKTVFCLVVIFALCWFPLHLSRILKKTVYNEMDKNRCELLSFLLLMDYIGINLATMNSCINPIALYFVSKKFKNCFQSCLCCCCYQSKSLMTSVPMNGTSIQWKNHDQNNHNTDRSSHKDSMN

Adenosine receptor A1 = target: T4, Adenosine receptor A1 (Homo sapiens, UniProt P30542)
T4 sequence (P30542 whole entry): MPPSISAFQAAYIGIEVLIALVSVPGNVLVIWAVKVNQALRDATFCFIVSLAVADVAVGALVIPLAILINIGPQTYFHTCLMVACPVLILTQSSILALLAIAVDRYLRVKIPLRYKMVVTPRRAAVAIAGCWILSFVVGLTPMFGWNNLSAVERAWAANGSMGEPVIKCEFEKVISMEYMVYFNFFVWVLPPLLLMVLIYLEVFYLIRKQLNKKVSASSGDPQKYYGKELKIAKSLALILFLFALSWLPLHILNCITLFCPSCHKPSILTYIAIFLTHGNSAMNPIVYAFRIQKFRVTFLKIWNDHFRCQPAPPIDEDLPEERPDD

[5] = target: T5, Gamma-aminobutyric acid receptor subunit alpha-1/alpha-2/beta-2/gamma-2 (Homo sapiens, UniProt P14867+P18507+P47869+P47870); type: functional, cell-based
T5 sequence (P14867 whole entry): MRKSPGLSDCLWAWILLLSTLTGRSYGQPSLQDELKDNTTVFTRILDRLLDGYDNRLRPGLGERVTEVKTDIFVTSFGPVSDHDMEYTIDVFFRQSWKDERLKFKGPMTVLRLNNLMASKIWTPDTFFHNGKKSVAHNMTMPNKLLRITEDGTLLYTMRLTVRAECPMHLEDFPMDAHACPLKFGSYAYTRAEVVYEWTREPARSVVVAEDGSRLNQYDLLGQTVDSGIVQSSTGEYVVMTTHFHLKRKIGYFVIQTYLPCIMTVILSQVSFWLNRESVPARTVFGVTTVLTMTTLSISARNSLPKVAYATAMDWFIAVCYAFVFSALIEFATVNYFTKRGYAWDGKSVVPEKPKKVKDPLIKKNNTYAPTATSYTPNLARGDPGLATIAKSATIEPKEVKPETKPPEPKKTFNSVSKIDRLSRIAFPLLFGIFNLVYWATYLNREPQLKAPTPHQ
T5 sequence (P47870 whole entry): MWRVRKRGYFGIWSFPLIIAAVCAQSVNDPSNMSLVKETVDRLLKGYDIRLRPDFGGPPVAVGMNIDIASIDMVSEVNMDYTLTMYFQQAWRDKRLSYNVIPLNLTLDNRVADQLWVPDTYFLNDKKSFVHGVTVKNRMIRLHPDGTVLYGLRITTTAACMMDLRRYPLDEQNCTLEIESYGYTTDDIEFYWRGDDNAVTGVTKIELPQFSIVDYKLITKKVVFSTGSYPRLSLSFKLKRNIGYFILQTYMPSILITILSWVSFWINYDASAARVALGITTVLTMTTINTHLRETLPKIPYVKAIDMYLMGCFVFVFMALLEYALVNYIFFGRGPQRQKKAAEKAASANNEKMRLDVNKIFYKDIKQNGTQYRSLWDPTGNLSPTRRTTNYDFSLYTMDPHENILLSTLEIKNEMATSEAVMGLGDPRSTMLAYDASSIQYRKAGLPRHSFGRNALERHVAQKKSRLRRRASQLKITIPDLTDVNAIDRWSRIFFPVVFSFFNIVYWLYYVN
T5 sequence (P18507 whole entry): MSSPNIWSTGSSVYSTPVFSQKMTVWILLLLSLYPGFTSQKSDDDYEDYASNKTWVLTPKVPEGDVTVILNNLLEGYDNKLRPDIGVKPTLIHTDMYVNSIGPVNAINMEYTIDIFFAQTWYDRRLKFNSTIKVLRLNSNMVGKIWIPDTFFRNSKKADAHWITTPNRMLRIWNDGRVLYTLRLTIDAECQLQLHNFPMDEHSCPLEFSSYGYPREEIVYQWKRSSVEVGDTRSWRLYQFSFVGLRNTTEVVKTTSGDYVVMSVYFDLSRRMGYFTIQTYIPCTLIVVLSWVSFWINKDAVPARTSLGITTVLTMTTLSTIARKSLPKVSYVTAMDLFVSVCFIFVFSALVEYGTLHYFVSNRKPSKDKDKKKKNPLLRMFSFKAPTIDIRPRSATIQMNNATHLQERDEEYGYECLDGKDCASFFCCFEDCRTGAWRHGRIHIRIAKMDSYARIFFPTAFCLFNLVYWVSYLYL
T5 sequence (P47869 whole entry): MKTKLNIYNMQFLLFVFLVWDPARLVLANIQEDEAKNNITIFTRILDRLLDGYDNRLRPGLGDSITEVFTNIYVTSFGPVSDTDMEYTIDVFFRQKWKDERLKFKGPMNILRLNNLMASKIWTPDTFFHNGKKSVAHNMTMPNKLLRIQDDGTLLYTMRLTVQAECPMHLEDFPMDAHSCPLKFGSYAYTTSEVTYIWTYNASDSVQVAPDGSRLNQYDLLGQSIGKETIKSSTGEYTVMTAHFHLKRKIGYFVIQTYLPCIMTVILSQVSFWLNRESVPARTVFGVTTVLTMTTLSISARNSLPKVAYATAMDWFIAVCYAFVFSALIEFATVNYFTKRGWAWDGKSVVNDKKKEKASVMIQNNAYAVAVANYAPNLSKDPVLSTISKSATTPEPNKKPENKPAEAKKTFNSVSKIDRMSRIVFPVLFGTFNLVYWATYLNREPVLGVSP

[6] = target: T5, Gamma-aminobutyric acid receptor subunit alpha-1/alpha-2/beta-2/gamma-2; type: protein-complex assay
[7] = target: Beta-3 adrenergic receptor (Homo sapiens, UniProt P13945)
Beta-3 adrenergic receptor, sequence (P13945 whole entry): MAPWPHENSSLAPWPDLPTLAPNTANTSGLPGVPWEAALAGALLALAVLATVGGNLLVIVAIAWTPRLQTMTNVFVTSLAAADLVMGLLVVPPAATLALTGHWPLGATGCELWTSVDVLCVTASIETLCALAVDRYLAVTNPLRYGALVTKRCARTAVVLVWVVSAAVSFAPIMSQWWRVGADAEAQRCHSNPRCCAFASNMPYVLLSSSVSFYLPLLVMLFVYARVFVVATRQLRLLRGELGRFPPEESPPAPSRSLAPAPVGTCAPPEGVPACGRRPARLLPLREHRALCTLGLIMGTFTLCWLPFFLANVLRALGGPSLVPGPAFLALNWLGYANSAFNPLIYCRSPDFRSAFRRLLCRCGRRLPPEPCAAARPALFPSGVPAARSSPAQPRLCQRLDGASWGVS

Histamine H2 receptor = Histamine H2 receptor (Homo sapiens, UniProt P25021)
Histamine H2 receptor, sequence (P25021 whole entry): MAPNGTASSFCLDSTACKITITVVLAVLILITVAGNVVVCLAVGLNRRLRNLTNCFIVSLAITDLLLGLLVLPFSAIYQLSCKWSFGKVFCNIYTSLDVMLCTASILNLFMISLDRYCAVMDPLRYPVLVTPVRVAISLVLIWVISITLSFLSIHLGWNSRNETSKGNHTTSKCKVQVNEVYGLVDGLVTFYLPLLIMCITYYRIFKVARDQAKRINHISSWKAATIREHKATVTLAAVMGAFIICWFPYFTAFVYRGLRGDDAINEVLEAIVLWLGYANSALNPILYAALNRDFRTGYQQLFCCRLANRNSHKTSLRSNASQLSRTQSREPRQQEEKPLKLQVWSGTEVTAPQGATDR

[8] = target: T6, Alpha-1A adrenergic receptor (Homo sapiens, UniProt P35348)
T6 sequence (P35348 whole entry): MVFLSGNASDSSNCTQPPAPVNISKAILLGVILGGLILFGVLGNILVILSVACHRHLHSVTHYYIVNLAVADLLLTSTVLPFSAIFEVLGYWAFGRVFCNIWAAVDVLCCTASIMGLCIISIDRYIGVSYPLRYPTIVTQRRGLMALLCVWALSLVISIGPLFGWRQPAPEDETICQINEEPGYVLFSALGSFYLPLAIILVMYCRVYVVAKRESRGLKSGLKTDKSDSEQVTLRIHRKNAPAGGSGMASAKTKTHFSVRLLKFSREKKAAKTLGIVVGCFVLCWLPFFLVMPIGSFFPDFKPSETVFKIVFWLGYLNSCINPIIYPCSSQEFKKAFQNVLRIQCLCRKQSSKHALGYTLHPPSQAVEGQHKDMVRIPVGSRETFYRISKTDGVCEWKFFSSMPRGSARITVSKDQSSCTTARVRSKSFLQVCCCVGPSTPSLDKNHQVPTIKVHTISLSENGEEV

[9] = target: Voltage-dependent N-type calcium channel subunit alpha-1B (Rattus norvegicus, UniProt Q02294); type: functional
Note: assay procedure not described here.

Histamine H1 receptor, sequence (P35367 whole entry): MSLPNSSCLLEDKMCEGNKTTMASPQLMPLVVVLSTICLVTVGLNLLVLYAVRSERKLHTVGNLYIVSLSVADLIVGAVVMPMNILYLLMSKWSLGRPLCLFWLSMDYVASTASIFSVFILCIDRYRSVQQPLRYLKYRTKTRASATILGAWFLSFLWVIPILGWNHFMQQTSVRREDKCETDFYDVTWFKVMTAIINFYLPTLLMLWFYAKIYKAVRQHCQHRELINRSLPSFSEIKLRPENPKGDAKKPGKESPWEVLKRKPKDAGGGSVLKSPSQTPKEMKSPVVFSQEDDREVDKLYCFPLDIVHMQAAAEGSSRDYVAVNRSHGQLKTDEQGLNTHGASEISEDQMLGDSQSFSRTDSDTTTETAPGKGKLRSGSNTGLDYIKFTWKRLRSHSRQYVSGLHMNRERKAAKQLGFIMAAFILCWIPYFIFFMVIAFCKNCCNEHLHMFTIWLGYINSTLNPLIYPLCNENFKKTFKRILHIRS
T1 sequence (P28223 whole entry): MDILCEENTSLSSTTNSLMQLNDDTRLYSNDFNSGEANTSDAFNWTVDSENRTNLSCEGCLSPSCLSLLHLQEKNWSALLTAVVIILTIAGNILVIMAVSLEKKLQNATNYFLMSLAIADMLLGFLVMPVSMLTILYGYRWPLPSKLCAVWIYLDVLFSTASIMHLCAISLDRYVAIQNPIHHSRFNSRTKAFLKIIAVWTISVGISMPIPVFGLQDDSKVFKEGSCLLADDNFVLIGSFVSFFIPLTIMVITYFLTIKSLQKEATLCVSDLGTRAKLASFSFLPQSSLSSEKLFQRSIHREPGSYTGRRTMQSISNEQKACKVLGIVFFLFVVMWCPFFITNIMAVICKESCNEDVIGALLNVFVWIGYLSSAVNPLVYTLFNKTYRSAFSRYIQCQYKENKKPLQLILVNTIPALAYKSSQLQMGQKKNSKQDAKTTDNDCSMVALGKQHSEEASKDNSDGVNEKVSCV

| SMILES | AC50 [1] | AC50 (Histamine H1 receptor) | AC50 [2] | AC50 [3] | AC50 [4] | AC50 (Endothelin-1 receptor) | AC50 [6] | other results |
| --- | --- | --- | --- | --- | --- | --- | --- | --- |
| C[N+]1(C)CCC(=C(c2ccccc2)c2ccccc2)CC1 | > 10 µM | 2.9 µM | 19 µM | 0.41 µM | 0.19 µM |  |  |  |
| C[N+](C)(C)CCOP(=O)([O-])OC[C@H](O)CO |  |  |  |  |  | > 30 µM |  |  |
| CN(C)Cc1nnc2n1-c1ccc(Cl)cc1C(c1ccccc1)=NC2 [ADINAZOLAM] |  | > 10 µM |  | > 10 µM |  |  |  |  |
| Cc1ccccc1-n1c(CF)nc2ccc(N)cc2c1=O [AFLOQUALONE] | > 10 µM | > 10 µM | > 10 µM | > 10 µM | > 30 µM |  |  |  |
| CC1(C)S[C@@H]2[C@H](/N=C/N3CCCCCC3)C(=O)N2[C@H]1C(=O)O [AMDINOCILLIN] |  |  |  |  |  |  |  | AC50 (Adenosine receptor A1): > 30 µM |
| CCC1(c2ccc(N)cc2)CCC(=O)NC1=O (stereo not given) [AMINOGLUTETHIMIDE] |  |  |  |  |  | > 30 µM |  | AC50 [5]: > 30 µM |
| NC(=O)[C@@H]1CC[C@@H]2CN1C(=O)N2OS(=O)(=O)O [AVIBACTAM] |  |  |  |  |  |  | > 30 µM |  |
| CC(Cc1cccc(C(F)(F)F)c1)NCCOC(=O)c1ccccc1 (stereo not given) [BENFLUOREX] | > 30 µM | 13.5 µM | 6.86 µM | > 30 µM | 27 µM | > 30 µM |  |  |
| CC(C)(C)NC(=O)N[C@H](C(=O)N1C[C@H]2[C@@H]([C@H]1C(=O)NC(CC1CCC1)C(=O)C(N)=O)C2(C)C)C(C)(C)C (stereo not given in full) [BOCEPREVIR] |  |  |  |  |  |  |  | AC50 (Adenosine receptor A1): > 30 µM |
| C=C1CC[C@H](O)C/C1=C/C=C1\CCC[C@]2(C)[C@@H]([C@H](C)CCCC(C)C)CC[C@@H]12 [CHOLECALCIFEROL] |  |  |  |  |  |  | > 30 µM |  |
| Cc1ncc2c(c1O)COC2c1ccc(Cl)cc1 (stereo not given) [CICLETANINE] |  |  |  |  |  |  | > 30 µM |  |
| N#Cc1ccc(Oc2ccc3c(c2)COB3O)cc1 [CRISABOROLE] |  |  |  |  |  |  | > 30 µM |  |
| C/C=C(/C(=C/C)c1ccc(O)cc1)c1ccc(O)cc1 [DIENESTROL] | > 10 µM | > 10 µM | > 10 µM |  | > 30 µM |  |  |  |
| CN[C@]1(c2ccccc2Cl)CCCCC1=O [ESKETAMINE] |  |  |  |  |  | > 30 µM |  |  |
| CC(=O)O[C@H]1Cc2ccccc2N(C(N)=O)c2ccccc21 [ESLICARBAZEPINE ACETATE] |  |  |  |  |  |  | > 30 µM |  |
| COc1ccc([C@@H]2CC(=O)c3c(O)cc(O)cc3O2)cc1O [HESPERETIN] | > 10 µM | > 10 µM | > 10 µM | > 10 µM | > 30 µM |  |  |  |
| CNCCc1ccc(OC(=O)C(C)C)c(OC(=O)C(C)C)c1 [IBOPAMINE] | > 30 µM | > 30 µM | > 30 µM | > 30 µM | > 30 µM | > 30 µM |  | AC50 [5]: > 30 µM |
| CN(C)CCCN1c2ccccc2CCc2ccccc21 [IMIPRAMINE] |  |  |  |  |  | > 30 µM |  | AC50 [7]: > 30 µM; AC50 (Histamine H2 receptor): 0.0697 µM; AC50 [8]: 0.239 µM; AC50 [9]: > 10 µM |
| COC(=O)C1=C(C)NC(C)=C(C(=O)OCCN2CCN(C(c3ccccc3)c3ccccc3)CC2)C1c1cccc([N+](=O)[O-])c1 (stereo not given) [MANIDIPINE 6300] | > 30 µM | 3.7 µM | > 30 µM | > 30 µM | > 30 µM | > 30 µM |  |  |
| C=C1c2cccc(O)c2C(=O)C2=C(O)[C@]3(O)C(=O)C(C(N)=O)=C(O)[C@@H](N(C)C)[C@@H]3[C@@H](O)[C@H]12 [METHACYCLINE] | > 10 µM | > 10 µM | > 10 µM | > 10 µM | > 30 µM |  |  |  |
| CN(Cc1cnc2nc(N)nc(N)c2n1)c1ccc(C(=O)N[C@@H](CCC(=O)O)C(=O)O)cc1 [METHOTREXATE] |  |  |  |  |  | > 30 µM |  | AC50 [7]: > 30 µM; AC50 (Histamine H2 receptor): > 10 µM; AC50 [9]: > 10 µM |

| SMILES | AC50 [1] | AC50 (Histamine H1 receptor) | AC50 [2] | AC50 [3] | AC50 [4] | AC50 (Endothelin-1 receptor) | AC50 [6] | other results |
| --- | --- | --- | --- | --- | --- | --- | --- | --- |
| COc1ccc(OC)c(C(O)C(C)N)c1 (stereo not given) [METHOXAMINE] |  |  |  |  |  |  | > 30 µM |  |
| CC1(CCN2CCCCC2)C(=O)CCc2ccccc21 (stereo not given) [NEPINALONE] |  |  |  |  |  |  | > 30 µM |  |
| COc1cccc(C(=O)CCN[C@@H](C)[C@H](O)c2ccccc2)c1 [OXYFEDRINE] |  |  |  |  |  |  | > 30 µM |  |
| CC[N+](C)(CC)CCOC(=O)C(O)(c1ccccc1)C1CCCCC1 (stereo not given) [OXYPHENONIUM] |  |  |  |  |  |  | > 30 µM |  |
| O=C1c2cccc3c2[C@H](CCC3)CN1[C@@H]1CN2CCC1CC2 [PALONOSETRON] | > 30 µM |  | > 30 µM | > 30 µM | 28 µM |  |  |  |
| C[C@@H]1C[C@H]2[C@@H]3C[C@H](F)C4=CC(=O)C=C[C@]4(C)[C@H]3[C@@H](O)C[C@]2(C)[C@@]1(O)C(=O)CO [PARAMETHASONE] |  |  |  |  |  |  | > 30 µM |  |
| OC[C@H]1O[C@@H](n2cnc3c2NC=NC[C@H]3O)C[C@@H]1O [PENTOSTATIN] | > 30 µM | > 30 µM | > 30 µM | > 30 µM | > 30 µM | > 30 µM |  | AC50 [5]: > 30 µM |
| NNCCc1ccccc1 [PHENELZINE] |  |  |  |  |  |  | > 30 µM |  |
| CCCn1cnc2c1c(=O)n(CCCCC(C)=O)c(=O)n2C [PROPENTOFYLLINE] |  |  |  |  |  |  | > 30 µM |  |
| CC(C)c1cccc(C(C)C)c1O [PROPOFOL] |  |  |  |  |  | > 30 µM |  | AC50 [5]: 2 µM |
| CN[C@@H](C)[C@@H](O)c1ccccc1 [PSEUDOEPHEDRINE] |  | > 10 µM |  | > 10 µM | > 10 µM | > 30 µM |  | AC50 [7]: > 30 µM; AC50 (Histamine H2 receptor): > 10 µM; AC50 [8]: > 10 µM; AC50 [9]: > 10 µM |
| CCCN1CC(NS(=O)(=O)N(CC)CC)CC2Cc3c(O)cccc3CC21 (stereo not given) [QUINAGOLIDE] |  | 2.8 µM |  | > 30 µM | > 30 µM | > 30 µM |  |  |
| COC(=O)[C@H]1[C@H]2C[C@@H]3c4[nH]c5cc(OC)ccc5c4CCN3C[C@H]2C[C@@H](OC(=O)c2cc(OC)c(OC)c(OC)c2)[C@@H]1OC [RESERPINE] |  |  |  |  |  |  | > 10 µM |  |
| Clc1ccc(C(Cn2ccnc2)OCc2csc3c(Cl)cccc23)c(Cl)c1 (stereo not given) [SERTACONAZOLE] |  |  |  |  |  |  | > 10 µM |  |
| CC(OCCN1CCCCCC1)(c1ccccc1)c1ccc(Cl)cc1 (stereo not given) [SETASTINE] |  |  |  |  |  |  | > 30 µM |  |
| O=C1OC(OC(=O)c2cccnc2Nc2cccc(C(F)(F)F)c2)c2ccccc21 (stereo not given) [TALNIFLUMATE] | > 30 µM | > 30 µM | > 30 µM | > 30 µM | > 30 µM | > 30 µM |  | AC50 [5]: > 30 µM |
| C[C@]12C=CC(=O)C=C1CC[C@@H]1[C@@H]2CC[C@]2(C)OC(=O)CC[C@@H]12 [TESTOLACTONE] | > 30 µM | > 10 µM | > 30 µM | > 10 µM | > 30 µM |  |  |  |
| c1ccc2c(SC3=NCCN3)c[nH]c2c1 [TINAZOLINE] |  |  |  |  |  |  | > 30 µM |  |
| Cc1ccc(C(=O)C(C)CN2CCCCC2)cc1 (stereo not given) [TOLPERISONE] |  |  |  |  |  |  | > 30 µM |  |
| CCOC(=O)c1c(CSc2ccccc2)n(C)c2cc(Br)c(O)c(CN(C)C)c12 [UMIFENOVIR] | > 30 µM | 30 µM | 6.7 µM | 18 µM | > 30 µM | > 30 µM |  |  |
